Experimental data from publication PMC10035947, “Development of novel anilinoquinazoline-based carboxylic acids as non-classical carbonic anhydrase IX and XII inhibitors” (Journal of Enzyme Inhibition and Medicinal Chemistry, 2023).

What was measured:
CCRF-CEM = experiment: NCI SRB assay; assay type: cell-based, human; settings: for GI%: 10 μM; for Growth Percent: 1.00E-5 Molar
ACHN = experiment: NCI SRB assay; assay type: cell-based, human; settings: for GI%: 10 μM; for Growth Percent: 1.00E-5 Molar
hCA II = target: T1, hCA II (Homo sapiens, UniProt P00918); experiment: stopped flow CO2 hydrase assay; assay type: biochemical; settings: mean from 3 assays
T1 construct: made in house
Procedure, shortened: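 Stopped-flow CO2 hydration with phenol red (0.2 mM) at 557 nm in 20 mM Hepes pH 7.5, 20 mM Na2SO4, CO2 1.7–17 mM, recombinant enzyme. Inhibitor preincubated 15 min at room temperature; uncatalyzed rate subtracted, Ki via Cheng-Prusoff, mean of ≥3 determinations.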

OVCAR-4 = experiment: NCI SRB assay; assay type: cell-based, human; settings: for GI%: OVCAR-4, 10 μM; for Growth Percent: OVCAR-4, 1.00E-5 Molar
MCF7 = experiment: NCI SRB assay; assay type: cell-based, human; settings: for GI%: MCF7, 10 μM; for Growth Percent: MCF7, 1.00E-5 Molar
T-47D = experiment: NCI SRB assay; assay type: cell-based, human; settings: for GI%: 10 μM; for Growth Percent: 1.00E-5 Molar
LOX IMVI = experiment: NCI SRB assay; assay type: cell-based, human; settings: for GI%: 10 μM; for Growth Percent: 1.00E-5 Molar
M14 = experiment: NCI SRB assay; assay type: cell-based, human; settings: for GI%: M14, 10 μM; for Growth Percent: M14, 1.00E-5 Molar
U251 = experiment: NCI SRB assay; assay type: cell-based, human; settings: for GI%: U251, 10 μM; for Growth Percent: U251, 1.00E-5 Molar
A549/ATCC = experiment: NCI SRB assay; assay type: cell-based, human; settings: A549/ATCC; for GI%: 10 μM; for Growth Percent: 1.00E-5 Molar
UACC-62 = experiment: NCI SRB assay; assay type: cell-based, human; settings: for GI%: UACC-62, 10 μM; for Growth Percent: UACC-62, 1.00E-5 Molar
HL-60(TB) = experiment: NCI SRB assay; assay type: cell-based, human; settings: HL-60(TB); for GI%: 10 μM; for Growth Percent: 1.00E-5 Molar
HOP-62 = experiment: NCI SRB assay; assay type: cell-based, human; settings: for GI%: HOP-62, 10 μM; for Growth Percent: HOP-62, 1.00E-5 Molar
EKVX = experiment: NCI SRB assay; assay type: cell-based, human; settings: for GI%: 10 μM; for Growth Percent: 1.00E-5 Molar
SK-OV-3 = experiment: NCI SRB assay; assay type: cell-based, human; settings: for GI%: SK-OV-3, 10 μM; for Growth Percent: SK-OV-3, 1.00E-5 Molar
SW-620 = experiment: NCI SRB assay; assay type: cell-based, human; settings: for GI%: SW-620, 10 μM; for Growth Percent: SW-620, 1.00E-5 Molar
HCT-15 = experiment: NCI SRB assay; assay type: cell-based, human; settings: for GI%: HCT-15, 10 μM; for Growth Percent: HCT-15, 1.00E-5 Molar
NCI-H460 = experiment: NCI SRB assay; assay type: cell-based, human; settings: for GI%: NCI-H460, 10 μM; for Growth Percent: NCI-H460, 1.00E-5 Molar
IGROV1 = experiment: NCI SRB assay; assay type: cell-based, human; settings: for GI%: IGROV1, 10 μM; for Growth Percent: IGROV1, 1.00E-5 Molar
COLO 205 = experiment: NCI SRB assay; assay type: cell-based, human; settings: for GI%: COLO 205, 10 μM; for Growth Percent: COLO 205, 1.00E-5 Molar
BT-549 = experiment: NCI SRB assay; assay type: cell-based, human; settings: for GI%: BT-549, 10 μM; for Growth Percent: BT-549, 1.00E-5 Molar
786-0 = experiment: NCI SRB assay; assay type: cell-based, human; settings: for GI%: 786-0, 10 μM; for Growth Percent: 786-0, 1.00E-5 Molar
MOLT-4 = experiment: NCI SRB assay; assay type: cell-based, human; settings: for GI%: MOLT-4, 10 μM; for Growth Percent: MOLT-4, 1.00E-5 Molar
NCI-H23 = experiment: NCI SRB assay; assay type: cell-based, human; settings: for Growth Percent: NCI-H23, 1.00E-5 Molar
OVCAR-5 = experiment: NCI SRB assay; assay type: cell-based, human; settings: for GI%: OVCAR-5, 10 μM; for Growth Percent: OVCAR-5, 1.00E-5 Molar
CAKI-1 = experiment: NCI SRB assay; assay type: cell-based, human; settings: for GI%: CAKI-1, 10 μM; for Growth Percent: CAKI-1, 1.00E-5 Molar
SNB-75 = experiment: NCI SRB assay; assay type: cell-based, human; settings: for GI%: SNB-75, 10 μM; for Growth Percent: SNB-75, 1.00E-5 Molar

With `Cc1cccc(-c2nc(Nc3ccc(C(=O)O)cc3)c3ccccc3n2)c1` [8a, 4-((2-(m-Tolyl)quinazolin-4-yl)amino)benzoic acid] the GI% (CCRF-CEM) was 25%, the “Growth Percent” value (CCRF-CEM) was 74.58% and the GI% (ACHN) was “– (Only GI% higher than 20% are shown)”. The “Growth Percent” value (ACHN) was 85.41%, the Ki (hCA II) was 9.3 µM and the GI% (OVCAR-4) was “– (Only GI% higher than 20% are shown)”. The “Growth Percent” value (OVCAR-4) was 83.42%, the GI% (MCF7) was “– (Only GI% higher than 20% are shown)” and the “Growth Percent” value (MCF7) was 88.63%. The GI% (T-47D) was 22%, the “Growth Percent” value (T-47D) was 77.59% and the GI% (LOX IMVI) was 29%. For the same compound, the “Growth Percent” value (LOX IMVI) was 71.49%, the GI% (M14) was “– (Only GI% higher than 20% are shown)” and the “Growth Percent” value (M14) was 88.98%. The GI% (U251) was 27%, the “Growth Percent” value (U251) was 72.61% and the GI% (A549/ATCC) was 22%. For the same compound, the “Growth Percent” value (A549/ATCC) was 78.30%, the GI% (UACC-62) was “– (Only GI% higher than 20% are shown)” and the “Growth Percent” value (UACC-62) was 104.52%. The GI% (HL-60(TB)) was “– (Only GI% higher than 20% are shown)”, the “Growth Percent” value (HL-60(TB)) was 92.72% and the GI% (HOP-62) was “– (Only GI% higher than 20% are shown)”. For the same compound, the “Growth Percent” value (HOP-62) was 95.14%, the GI% (EKVX) was “– (Only GI% higher than 20% are shown)” and the “Growth Percent” value (EKVX) was 82.93%. The GI% (SK-OV-3) was “– (Only GI% higher than 20% are shown)”, the “Growth Percent” value (SK-OV-3) was 108.70% and the GI% (SW-620) was “– (Only GI% higher than 20% are shown)”. For the same compound, the “Growth Percent” value (SW-620) was 84.27%, the GI% (HCT-15) was 29% and the “Growth Percent” value (HCT-15) was 70.54%. The GI% (NCI-H460) was 22%, the “Growth Percent” value (NCI-H460) was 78.01% and the GI% (IGROV1) was “– (Only GI% higher than 20% are shown)”. For the same compound, the “Growth Percent” value (IGROV1) was 110.06%, the GI% (COLO 205) was “– (Only GI% higher than 20% are shown)” and the “Growth Percent” value (COLO 205) was 135.98%. The GI% (BT-549) was 34%, the “Growth Percent” value (BT-549) was 66.04% and the GI% (786-0) was 29%. The “Growth Percent” value (786-0) was 70.77%, the GI% (MOLT-4) was 22% and the “Growth Percent” value (MOLT-4) was 78.39%. For the same compound, the “Growth Percent” value (NCI-H23) was 99.04%, the GI% (OVCAR-5) was “– (Only GI% higher than 20% are shown)” and the “Growth Percent” value (OVCAR-5) was 133.93%. For the same compound, the GI% (CAKI-1) was “– (Only GI% higher than 20% are shown)”, the “Growth Percent” value (CAKI-1) was 94.53% and the GI% (SNB-75) was “– (Only GI% higher than 20% are shown)”. For the same compound, the “Growth Percent” value (SNB-75) was 100.40%.

`Cc1ccc(-c2nc(Nc3ccc(C(=O)O)cc3)c3ccccc3n2)cc1` [8b, 4-((2-(p-Tolyl)quinazolin-4-yl)amino)benzoic acid] was tested, and the GI% (CCRF-CEM) was 28%, the “Growth Percent” value (CCRF-CEM) was 71.96% and the GI% (ACHN) was 24%. For the same compound, the “Growth Percent” value (ACHN) was 75.90%, the Ki (hCA II) was 3.9 µM and the GI% (OVCAR-4) was 26%. The “Growth Percent” value (OVCAR-4) was 74.11%, the GI% (MCF7) was 37% and the “Growth Percent” value (MCF7) was 63.19%. The GI% (T-47D) was 32%, the “Growth Percent” value (T-47D) was 68.59% and the GI% (LOX IMVI) was 43%. For the same compound, the “Growth Percent” value (LOX IMVI) was 57.05%, the GI% (M14) was “– (Only GI% higher than 20% are shown)” and the “Growth Percent” value (M14) was 80.88%. For the same compound, the GI% (U251) was “– (Only GI% higher than 20% are shown)”, the “Growth Percent” value (U251) was 86.94% and the GI% (A549/ATCC) was “– (Only GI% higher than 20% are shown)”. The “Growth Percent” value (A549/ATCC) was 95.03%, the GI% (UACC-62) was “– (Only GI% higher than 20% are shown)” and the “Growth Percent” value (UACC-62) was 95.83%. For the same compound, the GI% (HL-60(TB)) was 24%, the “Growth Percent” value (HL-60(TB)) was 76.30% and the GI% (HOP-62) was “– (Only GI% higher than 20% are shown)”. For the same compound, the “Growth Percent” value (HOP-62) was 88.98%, the GI% (EKVX) was 28% and the “Growth Percent” value (EKVX) was 72.41%. The GI% (SK-OV-3) was “– (Only GI% higher than 20% are shown)”, the “Growth Percent” value (SK-OV-3) was 99.63% and the GI% (SW-620) was “– (Only GI% higher than 20% are shown)”. The “Growth Percent” value (SW-620) was 91.47%, the GI% (HCT-15) was 49% and the “Growth Percent” value (HCT-15) was 50.85%. For the same compound, the GI% (NCI-H460) was “– (Only GI% higher than 20% are shown)”, the “Growth Percent” value (NCI-H460) was 82.06% and the GI% (IGROV1) was “– (Only GI% higher than 20% are shown)”. The “Growth Percent” value (IGROV1) was 92.17%, the GI% (COLO 205) was “– (Only GI% higher than 20% are shown)” and the “Growth Percent” value (COLO 205) was 109.50%. For the same compound, the GI% (BT-549) was 41%, the “Growth Percent” value (BT-549) was 59.16% and the GI% (786-0) was “– (Only GI% higher than 20% are shown)”. For the same compound, the “Growth Percent” value (786-0) was 85.63%, the GI% (MOLT-4) was 24% and the “Growth Percent” value (MOLT-4) was 76.42%. For the same compound, the GI% (NCI-H23; NCI-H23, 10 μM) was “– (Only GI% higher than 20% are shown)”, the “Growth Percent” value (NCI-H23) was 87.14% and the GI% (OVCAR-5) was “– (Only GI% higher than 20% are shown)”. The “Growth Percent” value (OVCAR-5) was 95.98%, the GI% (CAKI-1) was “– (Only GI% higher than 20% are shown)” and the “Growth Percent” value (CAKI-1) was 88.42%. For the same compound, the GI% (SNB-75) was “– (Only GI% higher than 20% are shown)” and the “Growth Percent” value (SNB-75) was 95.80%.
